Results taken from PubChem BioAssay (NCI).
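Test compounds were applied to cells in 96-well plates for 48 hours at 5 doses. TGI marks complete inhibition of growth.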

How the values were obtained:
Assay in all cases: growth of human tumour cells (NCI), 48 h
786-0 renal = system: 786-0 renal
A498 renal = system: A498 renal
A549 NSCLC = system: A549 NSCLC
ACHN renal = system: ACHN renal
CCRF-CEM leukemia = system: CCRF-CEM leukemia
COLO 205 colon = system: COLO 205 colon
DLD-1 colon = system: DLD-1 colon
DMS 114 small cell lung = system: DMS 114 small cell lung
DMS 273 small cell lung = system: DMS 273 small cell lung
HCC-2998 colon = system: HCC-2998 colon
HCT-116 colon = system: HCT-116 colon
HCT-15 colon = system: HCT-15 colon
HL-60(TB) leukemia = system: HL-60(TB) leukemia
HOP-62 NSCLC = system: HOP-62 NSCLC
HOP-92 NSCLC = system: HOP-92 NSCLC
HT29 colon = system: HT29 colon
IGROV1 ovarian = system: IGROV1 ovarian
KM12 colon = system: KM12 colon
KM20L2 colon = system: KM20L2 colon
LOX IMVI melanoma = system: LOX IMVI melanoma
LXFL 529 NSCLC = system: LXFL 529 NSCLC
M14 melanoma = system: M14 melanoma
M19-MEL melanoma = system: M19-MEL melanoma
MALME-3M melanoma = system: MALME-3M melanoma
MOLT-4 leukemia = system: MOLT-4 leukemia
NCI-H226 lung = system: NCI-H226 lung
NCI-H23 lung = system: NCI-H23 lung
NCI-H460 lung = system: NCI-H460 lung
NCI-H522 lung = system: NCI-H522 lung
OVCAR-3 ovarian = system: OVCAR-3 ovarian
OVCAR-4 ovarian = system: OVCAR-4 ovarian
OVCAR-5 ovarian = system: OVCAR-5 ovarian
OVCAR-8 ovarian = system: OVCAR-8 ovarian
RPMI-8226 leukemia = system: RPMI-8226 leukemia
SF-268 CNS = system: SF-268 CNS
SF-295 CNS = system: SF-295 CNS
SF-539 CNS = system: SF-539 CNS
SK-MEL-2 melanoma = system: SK-MEL-2 melanoma
SK-MEL-28 melanoma = system: SK-MEL-28 melanoma
SK-MEL-5 melanoma = system: SK-MEL-5 melanoma
SK-OV-3 ovarian = system: SK-OV-3 ovarian
SN12C renal = system: SN12C renal
SNB-75 CNS = system: SNB-75 CNS
SNB-78 CNS = system: SNB-78 CNS
SR leukemia = system: SR leukemia
TK-10 renal = system: TK-10 renal
U251 CNS = system: U251 CNS
UACC-257 melanoma = system: UACC-257 melanoma
UO-31 renal = system: UO-31 renal
XF 498 CNS = system: XF 498 CNS
CAKI-1 renal = system: CAKI-1 renal
K-562 leukemia = system: K-562 leukemia
SNB-19 CNS = system: SNB-19 CNS
SW-620 colon = system: SW-620 colon
UACC-62 melanoma = system: UACC-62 melanoma

Question: Which results are given for `COc1ccc(C2NC3=C(CCCC3)N2)cc1`?
Answer: TGI (786-0 renal): > 100 µM; TGI (A498 renal): > 100 µM; TGI (A549 NSCLC): > 100 µM; TGI (ACHN renal): > 100 µM; TGI (CCRF-CEM leukemia): > 100 µM; TGI (COLO 205 colon): > 100 µM; TGI (DLD-1 colon): > 100 µM; TGI (DMS 114 small cell lung): > 100 µM; TGI (DMS 273 small cell lung): > 100 µM; TGI (HCC-2998 colon): > 100 µM; TGI (HCT-116 colon): > 100 µM; TGI (HCT-15 colon): > 100 µM; TGI (HL-60(TB) leukemia): 66 µM; TGI (HOP-62 NSCLC): > 100 µM; TGI (HOP-92 NSCLC): > 100 µM; TGI (HT29 colon): > 100 µM; TGI (IGROV1 ovarian): > 100 µM; TGI (KM12 colon): > 100 µM; TGI (KM20L2 colon): 80.8 µM; TGI (LOX IMVI melanoma): > 100 µM; TGI (LXFL 529 NSCLC): > 100 µM; TGI (M14 melanoma): > 100 µM; TGI (M19-MEL melanoma): > 100 µM; TGI (MALME-3M melanoma): > 100 µM; TGI (MOLT-4 leukemia): > 100 µM; TGI (NCI-H226 lung): > 100 µM; TGI (NCI-H23 lung): > 100 µM; TGI (NCI-H460 lung): > 100 µM; TGI (NCI-H522 lung): > 100 µM; TGI (OVCAR-3 ovarian): > 100 µM; TGI (OVCAR-4 ovarian): > 100 µM; TGI (OVCAR-5 ovarian): > 100 µM; TGI (OVCAR-8 ovarian): > 100 µM; TGI (RPMI-8226 leukemia): > 100 µM; TGI (SF-268 CNS): > 100 µM; TGI (SF-295 CNS): > 100 µM; TGI (SF-539 CNS): > 100 µM; TGI (SK-MEL-2 melanoma): > 100 µM; TGI (SK-MEL-28 melanoma): > 100 µM; TGI (SK-MEL-5 melanoma): 67.5 µM; TGI (SK-OV-3 ovarian): > 100 µM; TGI (SN12C renal): > 100 µM; TGI (SNB-75 CNS): > 100 µM; TGI (SNB-78 CNS): > 100 µM; TGI (SR leukemia): > 100 µM; TGI (TK-10 renal): > 100 µM; TGI (U251 CNS): > 100 µM; TGI (UACC-257 melanoma): > 100 µM; TGI (UO-31 renal): > 100 µM; TGI (XF 498 CNS): > 100 µM

Question: `O=C(O)CCCc1cc2c(s1)-c1cccc3cccc-2c13` was tested. Which TGI (786-0 renal) did it give?
Answer: The TGI was > 100 µM.

Question: What about the TGI (A549 NSCLC) of the same compound?
Answer: Its TGI is > 100 µM.

Question: What about the TGI (ACHN renal) of the same compound?
Answer: Its TGI is 76 µM.

Question: And the TGI (CAKI-1 renal)?
Answer: Its TGI is > 100 µM.

Question: And the TGI (COLO 205 colon)?
Answer: Its TGI is 42.3 µM.

Question: And the TGI (DLD-1 colon)?
Answer: The TGI was > 100 µM.

Question: What about the TGI (DMS 273 small cell lung) of the same compound?
Answer: The TGI was > 100 µM.

Question: And the TGI (HCC-2998 colon)?
Answer: Its TGI is 50.2 µM.

Question: What about the TGI (HCT-116 colon) of the same compound?
Answer: The TGI was > 100 µM.

Question: What about the TGI (HCT-15 colon) of the same compound?
Answer: Its TGI is 51.8 µM.

Question: And the TGI (HL-60(TB) leukemia)?
Answer: Its TGI is 57.5 µM.

Question: And the TGI (HOP-62 NSCLC)?
Answer: The TGI was > 100 µM.

Question: What about the TGI (HOP-92 NSCLC) of the same compound?
Answer: The TGI was 39 µM.

Question: What about the TGI (HT29 colon) of the same compound?
Answer: Its TGI is > 100 µM.

Question: And the TGI (IGROV1 ovarian)?
Answer: The TGI was > 100 µM.

Question: And the TGI (K-562 leukemia)?
Answer: The TGI was > 100 µM.

Question: What about the TGI (KM12 colon) of the same compound?
Answer: The TGI was 42.3 µM.

Question: What about the TGI (KM20L2 colon) of the same compound?
Answer: Its TGI is > 100 µM.

Question: What about the TGI (LOX IMVI melanoma) of the same compound?
Answer: Its TGI is 52 µM.

Question: And the TGI (LXFL 529 NSCLC)?
Answer: Its TGI is > 100 µM.

Question: And the TGI (M14 melanoma)?
Answer: Its TGI is > 100 µM.

Question: And the TGI (MALME-3M melanoma)?
Answer: Its TGI is > 100 µM.

Question: What about the TGI (MOLT-4 leukemia) of the same compound?
Answer: Its TGI is 60.8 µM.

Question: And the TGI (NCI-H226 lung)?
Answer: Its TGI is > 100 µM.

Question: And the TGI (NCI-H23 lung)?
Answer: Its TGI is 41.2 µM.

Question: And the TGI (NCI-H460 lung)?
Answer: Its TGI is > 100 µM.

Question: What about the TGI (NCI-H522 lung) of the same compound?
Answer: Its TGI is 51.1 µM.

Question: And the TGI (OVCAR-3 ovarian)?
Answer: The TGI was 49.5 µM.

Question: What about the TGI (OVCAR-4 ovarian) of the same compound?
Answer: Its TGI is > 100 µM.

Question: And the TGI (OVCAR-5 ovarian)?
Answer: The TGI was > 100 µM.

Question: And the TGI (OVCAR-8 ovarian)?
Answer: The TGI was > 100 µM.

Question: What about the TGI (RPMI-8226 leukemia) of the same compound?
Answer: The TGI was 72.5 µM.

Question: What about the TGI (SF-268 CNS) of the same compound?
Answer: Its TGI is > 100 µM.

Question: What about the TGI (SF-295 CNS) of the same compound?
Answer: The TGI was > 100 µM.

Question: And the TGI (SF-539 CNS)?
Answer: Its TGI is > 100 µM.

Question: What about the TGI (SK-MEL-2 melanoma) of the same compound?
Answer: Its TGI is 46.3 µM.

Question: And the TGI (SK-MEL-28 melanoma)?
Answer: Its TGI is > 100 µM.

Question: What about the TGI (SK-OV-3 ovarian) of the same compound?
Answer: The TGI was 75.4 µM.

Question: And the TGI (SN12C renal)?
Answer: Its TGI is 80.4 µM.

Question: And the TGI (SNB-19 CNS)?
Answer: The TGI was > 100 µM.

Question: And the TGI (SNB-75 CNS)?
Answer: The TGI was > 100 µM.

Question: What about the TGI (SNB-78 CNS) of the same compound?
Answer: The TGI was 94.9 µM.

Question: What about the TGI (SR leukemia) of the same compound?
Answer: The TGI was 56.9 µM.

Question: And the TGI (SW-620 colon)?
Answer: Its TGI is > 100 µM.

Question: What about the TGI (TK-10 renal) of the same compound?
Answer: Its TGI is > 100 µM.

Question: And the TGI (U251 CNS)?
Answer: Its TGI is 53.8 µM.

Question: And the TGI (UACC-257 melanoma)?
Answer: The TGI was 53.9 µM.

Question: What about the TGI (UACC-62 melanoma) of the same compound?
Answer: The TGI was 47.2 µM.

Question: And the TGI (UO-31 renal)?
Answer: The TGI was 43.4 µM.

Question: And the TGI (XF 498 CNS)?
Answer: The TGI was > 100 µM.
